System: 565726-208-R1-J5-PDC complex spheroids, growth inhibition
Test: Anticancer human tumor 565726-208-R1-J5-PDC patient-derived pancreatic adenocarcinoma cell line growth inhibition [RAS]
Conditions: for IC50: curve of first compound; for viability, T/C: stronger effect = lower value
In short: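 Agents were tested in combination matrices in half-log decrements from a top concentration at or near clinical Cmax (10 microM if undetermined). Targets were multi-cell spheroids of tumour lines plus HUVEC and MSC stromal cells.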
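Also: spheroids exposed to compounds for seven days before readout.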
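For viability, T/C in this document: 100% = DMSO vehicle control viability.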

SMILES: CC(Nc1ccc2c(c1)OCCn1cc(N3C(=O)OCC3C(F)F)nc1-2)C(N)=O (configuration not stated) + CCn1c(-c2cc(N3CCN(C)CC3)cnc2C(C)OC)c2c3cc(ccc31)-c1csc(n1)CC(NC(=O)C1CC1C)C(=O)N1CCCC(N1)C(=O)OCC(C)(C)C2
- IC50 (second compound 0.000949 µM): 316 nM
- IC50 (second compound 0.003 µM): < 31.6 nM
- IC50 (second compound 0.00949 µM): < 31.6 nM
- IC50 (second compound 0.03 µM): < 31.6 nM
- IC50 (second compound 0.0949 µM): < 31.6 nM
- IC50 (second compound 0.3 µM): < 31.6 nM
- viability, T/C (second compound 0.000949 µM, first compound 0.0316 µM): 62.7%
- viability, T/C (second compound 0.000949 µM, first compound 0.1 µM): 49%
- viability, T/C (second compound 0.000949 µM, first compound 0.316 µM): 50.6%
- viability, T/C (second compound 0.000949 µM, first compound 1 µM): 47.7%
- viability, T/C (second compound 0.000949 µM, first compound 3.16 µM): 40.2%
- viability, T/C (second compound 0.000949 µM, first compound 10 µM): 32.9%
- viability, T/C (second compound 0.003 µM, first compound 0.0316 µM): 49.7%
- viability, T/C (second compound 0.003 µM, first compound 0.1 µM): 48.4%
- viability, T/C (second compound 0.003 µM, first compound 0.316 µM): 39.7%
- viability, T/C (second compound 0.003 µM, first compound 1 µM): 37.2%
- viability, T/C (second compound 0.003 µM, first compound 3.16 µM): 36.3%
- viability, T/C (second compound 0.003 µM, first compound 10 µM): 24.2%
- viability, T/C (second compound 0.00949 µM, first compound 0.0316 µM): 44.5%
- viability, T/C (second compound 0.00949 µM, first compound 0.1 µM): 37.4%
- viability, T/C (second compound 0.00949 µM, first compound 0.316 µM): 32.9%
- viability, T/C (second compound 0.00949 µM, first compound 1 µM): 29.6%
- viability, T/C (second compound 0.00949 µM, first compound 3.16 µM): 26.4%
- viability, T/C (second compound 0.00949 µM, first compound 10 µM): 19.5%
- viability, T/C (second compound 0.03 µM, first compound 0.0316 µM): 31.9%
- viability, T/C (second compound 0.03 µM, first compound 0.1 µM): 26.9%
- viability, T/C (second compound 0.03 µM, first compound 0.316 µM): 26.8%
- viability, T/C (second compound 0.03 µM, first compound 1 µM): 24.9%
- viability, T/C (second compound 0.03 µM, first compound 3.16 µM): 22.4%
- viability, T/C (second compound 0.03 µM, first compound 10 µM): 13.3%
- viability, T/C (second compound 0.0949 µM, first compound 0.0316 µM): 24.8%
- viability, T/C (second compound 0.0949 µM, first compound 0.1 µM): 24.6%
- viability, T/C (second compound 0.0949 µM, first compound 0.316 µM): 23.1%
- viability, T/C (second compound 0.0949 µM, first compound 1 µM): 18.5%
- viability, T/C (second compound 0.0949 µM, first compound 3.16 µM): 18.4%
- viability, T/C (second compound 0.0949 µM, first compound 10 µM): 12.1%
- viability, T/C (second compound 0.3 µM, first compound 0.0316 µM): 22.6%
- viability, T/C (second compound 0.3 µM, first compound 0.1 µM): 20.9%
- viability, T/C (second compound 0.3 µM, first compound 0.316 µM): 20.1%
- viability, T/C (second compound 0.3 µM, first compound 1 µM): 19.3%
- viability, T/C (second compound 0.3 µM, first compound 3.16 µM): 15.6%
- viability, T/C (second compound 0.3 µM, first compound 10 µM): 10.7%

SMILES: CC(C)n1nc(-c2ccc3oc(N)nc3c2)c2c(N)ncnc21
- viability, T/C (compound 0.00316 µM): 84% [middle of 4 runs]
- viability, T/C (compound 0.01 µM): 66% [middle of 4 runs]
- viability, T/C (compound 0.0316 µM): 54.3% [middle of 4 runs]

SMILES: CC(=O)OC12COC1CC(O)C1(C)C(=O)C(O)C3=C(C)C(OC(=O)C(O)C(NC(=O)OC(C)(C)C)c4ccccc4)CC(O)(C(OC(=O)c4ccccc4)C21)C3(C)C (configuration not stated) + C=CC(=O)N1CCN(c2nc(OCC3CCCN3C)nc3c(F)c(-c4nc(N)cc(C)c4C(F)(F)F)c(Cl)cc23)C(C)C1
- IC50 (second compound 0.00316 µM): < 31.6 nM
- IC50 (second compound 0.01 µM): < 31.6 nM
- IC50 (second compound 0.0316 µM): < 31.6 nM
- IC50 (second compound 0.1 µM): < 31.6 nM
- IC50 (second compound 0.316 µM): < 31.6 nM
- IC50 (second compound 1 µM): < 31.6 nM
- viability, T/C (second compound 0.00316 µM, first compound 0.0316 µM): 22.4%
- viability, T/C (second compound 0.00316 µM, first compound 0.1 µM): 20.6%
- viability, T/C (second compound 0.00316 µM, first compound 0.316 µM): 22.6%
- viability, T/C (second compound 0.00316 µM, first compound 1 µM): 19.4%
- viability, T/C (second compound 0.00316 µM, first compound 3.16 µM): 30%
- viability, T/C (second compound 0.00316 µM, first compound 10 µM): 37.1%
- viability, T/C (second compound 0.01 µM, first compound 0.0316 µM): 25%
- viability, T/C (second compound 0.01 µM, first compound 0.1 µM): 21.8%
- viability, T/C (second compound 0.01 µM, first compound 0.316 µM): 21.1%
- viability, T/C (second compound 0.01 µM, first compound 1 µM): 23.5%
- viability, T/C (second compound 0.01 µM, first compound 3.16 µM): 32.6%
- viability, T/C (second compound 0.01 µM, first compound 10 µM): 47.7%
- viability, T/C (second compound 0.0316 µM, first compound 0.0316 µM): 31.6%
- viability, T/C (second compound 0.0316 µM, first compound 0.1 µM): 26.6%
- viability, T/C (second compound 0.0316 µM, first compound 0.316 µM): 24.9%
- viability, T/C (second compound 0.0316 µM, first compound 1 µM): 21%
- viability, T/C (second compound 0.0316 µM, first compound 3.16 µM): 29.5%
- viability, T/C (second compound 0.0316 µM, first compound 10 µM): 44.8%
- viability, T/C (second compound 0.1 µM, first compound 0.0316 µM): 26%
- viability, T/C (second compound 0.1 µM, first compound 0.1 µM): 23%
- viability, T/C (second compound 0.1 µM, first compound 0.316 µM): 26%
- viability, T/C (second compound 0.1 µM, first compound 1 µM): 19%
- viability, T/C (second compound 0.1 µM, first compound 3.16 µM): 27.7%
- viability, T/C (second compound 0.1 µM, first compound 10 µM): 42.8%
- viability, T/C (second compound 0.316 µM, first compound 0.0316 µM): 21.1%
- viability, T/C (second compound 0.316 µM, first compound 0.1 µM): 26.6%
- viability, T/C (second compound 0.316 µM, first compound 0.316 µM): 22.4%
- viability, T/C (second compound 0.316 µM, first compound 1 µM): 24.9%
- viability, T/C (second compound 0.316 µM, first compound 3.16 µM): 28%
- viability, T/C (second compound 0.316 µM, first compound 10 µM): 45.9%
- viability, T/C (second compound 1 µM, first compound 0.0316 µM): 34.8%
- viability, T/C (second compound 1 µM, first compound 0.1 µM): 24.1%
- viability, T/C (second compound 1 µM, first compound 0.316 µM): 22.1%
- viability, T/C (second compound 1 µM, first compound 1 µM): 26.4%
- viability, T/C (second compound 1 µM, first compound 3.16 µM): 34.4%
- viability, T/C (second compound 1 µM, first compound 10 µM): 50.1%

— PubChem BioAssay AID2060899 (Molecular Pharmacology Branch, DTP, NCI, 2025)
